Laboratory results: patent US12624044B2, “SMARCA degraders and uses thereof” (Kymera Therapeutics, Inc., priority 2019, dated 2026)

Columns and labels:
Assay type in all cases: cell-based
SMARCA2 [1] = molecular target: T1, SMARCA2 (Homo sapiens, UniProt P51531); assay: MSD SMARCA2 degradation in A549 cell line; conditions: for DC50 / Dmax: 24 h; for DC50: read-out: SMARCA2 MSD A549 degradation 24 h: Average external-Abs DC50; for Dmax: A549, A549 cells
Summary of the method: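 A549 cells treated 24 h with compound at final 0.152-1000 nM (3-fold series, DMSO control). Lysates analyzed by MSD immunoassay using anti-SMARCA2/BRM detection and SULFO-TAG secondary antibodies; maximal degradation (Dmax %) reported as letter bins.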

SMARCA2 [2] = molecular target: T1, SMARCA2; assay: SMARCA2 Western blot MV4-11 degradation; conditions: for DC50 / Dmax: 24 h; for DC50: read-out: SMARCA2 WB MV411 degradation 24 h: Average external-Abs DC50; for Dmax: MV4-11, MV4-11 cells, read-out: SMARCA2 WB MV411 degradation 24 h: Average Dmax %
Summary of the method: (§1)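 MV4-11 cells treated with compound for 24 h, lysed in RIPA with protease/phosphatase inhibitors, and SMARCA2 and SMARCA4 (BRG1) levels assessed by Western blot with β-actin loading control and LI-COR fluorescent read-out. Maximal degradation (Dmax %) after 24 h binned into letter codes.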

SMARCA4 = molecular target: T2, SMARCA4 (Homo sapiens, UniProt P51532); assay: SMARCA4 Western blot MV4-11 degradation; conditions: for DC50 / Dmax: 24 h; for DC50: read-out: SMARCA4 WB MV411 degradation 24 h: Average external-Abs DC50; for Dmax: MV4-11, MV4-11 cells, read-out: SMARCA4 WB MV411 degradation 24 h: Average Dmax %
T2 construct: SMARCA2 and SMARCA4 protein degradation in MV4-11 cells; endogenous in cells; host or cells: MV4-11
Summary of the method: as §1

SMARCA2 [3] = molecular target: T1, SMARCA2; assay: MSD SMARCA2 degradation in NCI-H1299 cell line (24 h); parameters: HC: NCI-H1299 cells treated with DMSO; host or cells: NCI-H1299; conditions: NCI-H1299 cells
Summary of the method: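 NCI-H1299 cells treated 24 h with a 3-fold, 9-point compound dilution series, then lysed in RIPA with protease inhibitor. SMARCA2 in lysate-coated MSD plates detected with rabbit anti-SMARCA2 (0.3 ug/ml) and SULFO-TAG secondary. Relative SMARCA2 level normalized between DMSO-treated H1299 cells and SMARCA2-negative A2780 cells; Dmax % binned A–D.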

T1 sequence (P51531 whole entry): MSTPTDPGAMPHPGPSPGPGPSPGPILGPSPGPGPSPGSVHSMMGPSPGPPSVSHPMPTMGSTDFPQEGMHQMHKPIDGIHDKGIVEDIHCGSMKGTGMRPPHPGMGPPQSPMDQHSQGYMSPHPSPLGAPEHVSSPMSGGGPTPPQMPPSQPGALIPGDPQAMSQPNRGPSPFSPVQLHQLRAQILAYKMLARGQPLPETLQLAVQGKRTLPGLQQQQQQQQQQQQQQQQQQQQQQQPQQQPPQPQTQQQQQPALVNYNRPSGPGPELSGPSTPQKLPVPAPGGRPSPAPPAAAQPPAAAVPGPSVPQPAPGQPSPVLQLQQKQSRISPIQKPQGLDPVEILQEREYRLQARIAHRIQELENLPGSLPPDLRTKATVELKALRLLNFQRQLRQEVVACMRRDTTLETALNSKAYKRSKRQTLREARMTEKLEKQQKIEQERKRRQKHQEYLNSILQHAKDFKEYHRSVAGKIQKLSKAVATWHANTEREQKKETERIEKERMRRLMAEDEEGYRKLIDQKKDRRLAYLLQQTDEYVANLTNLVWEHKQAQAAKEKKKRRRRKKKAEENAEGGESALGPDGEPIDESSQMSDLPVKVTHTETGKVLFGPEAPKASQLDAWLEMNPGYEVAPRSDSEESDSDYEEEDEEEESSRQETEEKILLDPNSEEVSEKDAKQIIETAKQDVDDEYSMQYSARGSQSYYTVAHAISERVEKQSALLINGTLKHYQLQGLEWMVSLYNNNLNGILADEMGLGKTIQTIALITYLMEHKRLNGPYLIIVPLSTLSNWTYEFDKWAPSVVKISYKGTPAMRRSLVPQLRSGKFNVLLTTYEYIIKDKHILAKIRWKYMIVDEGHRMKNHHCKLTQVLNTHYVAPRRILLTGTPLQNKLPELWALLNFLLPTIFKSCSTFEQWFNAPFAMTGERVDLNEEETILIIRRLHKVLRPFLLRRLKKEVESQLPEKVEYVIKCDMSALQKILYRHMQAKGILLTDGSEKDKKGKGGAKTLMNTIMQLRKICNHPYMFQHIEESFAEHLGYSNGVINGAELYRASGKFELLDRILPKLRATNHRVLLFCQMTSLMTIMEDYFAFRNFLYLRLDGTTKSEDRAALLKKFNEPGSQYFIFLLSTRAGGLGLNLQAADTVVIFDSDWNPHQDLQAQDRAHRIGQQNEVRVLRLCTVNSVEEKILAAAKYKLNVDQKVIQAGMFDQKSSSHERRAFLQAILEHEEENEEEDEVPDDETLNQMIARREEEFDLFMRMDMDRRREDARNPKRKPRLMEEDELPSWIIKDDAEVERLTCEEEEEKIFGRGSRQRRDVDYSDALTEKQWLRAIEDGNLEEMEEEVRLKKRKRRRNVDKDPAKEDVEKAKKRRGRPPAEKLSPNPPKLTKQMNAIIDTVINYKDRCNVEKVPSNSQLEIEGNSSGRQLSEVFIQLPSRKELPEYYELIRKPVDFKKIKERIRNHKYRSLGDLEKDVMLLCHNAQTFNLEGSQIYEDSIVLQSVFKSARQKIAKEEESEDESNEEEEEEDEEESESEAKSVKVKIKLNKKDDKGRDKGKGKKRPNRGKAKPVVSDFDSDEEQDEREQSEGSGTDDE
T2 sequence (P51532 whole entry): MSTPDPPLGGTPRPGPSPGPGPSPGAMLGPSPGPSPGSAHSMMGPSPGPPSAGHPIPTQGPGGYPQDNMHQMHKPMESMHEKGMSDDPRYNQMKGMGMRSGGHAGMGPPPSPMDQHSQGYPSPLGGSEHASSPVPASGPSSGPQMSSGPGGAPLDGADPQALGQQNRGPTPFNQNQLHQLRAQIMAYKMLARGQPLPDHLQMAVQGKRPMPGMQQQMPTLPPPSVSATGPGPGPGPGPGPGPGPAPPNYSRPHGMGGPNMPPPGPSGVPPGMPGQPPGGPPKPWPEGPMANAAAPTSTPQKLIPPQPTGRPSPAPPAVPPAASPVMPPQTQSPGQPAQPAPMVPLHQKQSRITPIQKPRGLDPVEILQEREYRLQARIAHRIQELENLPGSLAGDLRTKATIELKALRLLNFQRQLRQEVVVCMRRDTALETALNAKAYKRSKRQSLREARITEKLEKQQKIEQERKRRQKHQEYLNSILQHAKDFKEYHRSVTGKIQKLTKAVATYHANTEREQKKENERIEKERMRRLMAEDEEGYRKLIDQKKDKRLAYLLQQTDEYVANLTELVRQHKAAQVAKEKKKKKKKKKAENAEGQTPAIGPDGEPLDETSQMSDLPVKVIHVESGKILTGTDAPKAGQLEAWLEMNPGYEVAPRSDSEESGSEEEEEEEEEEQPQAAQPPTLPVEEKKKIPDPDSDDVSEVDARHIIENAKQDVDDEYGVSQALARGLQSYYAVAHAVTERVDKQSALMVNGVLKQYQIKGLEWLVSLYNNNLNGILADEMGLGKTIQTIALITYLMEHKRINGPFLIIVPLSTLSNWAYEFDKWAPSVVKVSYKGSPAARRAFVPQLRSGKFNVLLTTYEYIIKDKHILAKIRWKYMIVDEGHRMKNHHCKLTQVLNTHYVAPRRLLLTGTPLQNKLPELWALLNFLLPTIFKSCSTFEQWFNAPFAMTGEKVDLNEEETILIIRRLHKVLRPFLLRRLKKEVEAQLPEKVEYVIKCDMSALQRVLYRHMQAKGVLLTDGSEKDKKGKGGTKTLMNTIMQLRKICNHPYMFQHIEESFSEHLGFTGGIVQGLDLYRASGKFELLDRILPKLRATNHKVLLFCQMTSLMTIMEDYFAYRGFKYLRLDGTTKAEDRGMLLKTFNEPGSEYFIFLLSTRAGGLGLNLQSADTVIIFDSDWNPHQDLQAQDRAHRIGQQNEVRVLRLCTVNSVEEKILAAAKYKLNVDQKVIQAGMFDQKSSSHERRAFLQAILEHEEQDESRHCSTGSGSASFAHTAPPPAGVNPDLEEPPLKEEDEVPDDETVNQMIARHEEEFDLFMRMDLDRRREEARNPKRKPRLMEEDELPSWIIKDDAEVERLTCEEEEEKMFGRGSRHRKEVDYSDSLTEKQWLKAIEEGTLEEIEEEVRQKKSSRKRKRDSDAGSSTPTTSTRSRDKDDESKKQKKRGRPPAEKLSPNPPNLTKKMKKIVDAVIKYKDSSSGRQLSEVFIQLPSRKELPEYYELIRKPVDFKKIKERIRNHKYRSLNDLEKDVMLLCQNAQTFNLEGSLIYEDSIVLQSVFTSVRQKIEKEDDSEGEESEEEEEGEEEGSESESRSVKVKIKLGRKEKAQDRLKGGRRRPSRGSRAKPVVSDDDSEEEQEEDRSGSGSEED

Row | SMILES | SMARCA2 MSD A549 degradation 24 h: Average Dmax % (SMARCA2 [1]; A549 cells) | DC50 (SMARCA2 [1]; A549 cells) [nM] | SMARCA2 WB MV411 degradation 24 h: Average Dmax % (SMARCA2 [2]; MV4-11 cells) | DC50 (SMARCA2 [2]; MV4-11 cells) [nM] | SMARCA4 WB MV411 degradation 24 h: Average Dmax % (SMARCA4; MV4-11 cells) | DC50 (SMARCA4; MV4-11 cells) [nM] | SMARCA2 MSD H1299 degradation 24 h: Dmax % (SMARCA2 [3]) | DC50 (SMARCA2 [3]; read-out: SMARCA2 MSD H1299 degradation 24 h: External Abs-DC50) [nM] | Dmax (SMARCA2 [1]) [%] | Dmax (SMARCA2 [2]) [%] | Dmax (SMARCA4) [%]
1 | Cc1ncsc1-c1ccc(CNC(=O)[C@@H]2C[C@@H](O)CN2C(=O)[C@@H](NC(=O)[C@H]2CC3(C2)C[C@H](N2CCC(n4cc(-c5cc(-c6ccccc6O)nnc5N)cn4)CC2)C3)C(C)(C)C)cc1 (some centres unmarked) [I-390] | B (B (>70-90% degradation)) | 100 to 500 | B (B (>70-90% degradation)) | < 100 | D (D (<50% degradation)) | < 100 | C (C (50-70 degradation)) | 501 to 1000 |  |  | 
2 | Cc1ncsc1-c1ccc(CNC(=O)[C@@H]2C[C@@H](O)CN2C(=O)[C@@H](NC(=O)CN2C3CCC2CC(c2cnc(N4C5CCC4CN(c4cc(-c6ccccc6O)nnc4N)C5)nc2)C3)C(C)(C)C)cc1 (some centres unmarked) [I-509] |  | 100 to 500 |  | < 100 |  | > 1000 |  |  | > 90 | 70 to 90 | 70 to 90
3 | Cc1ncsc1-c1ccc(CNC(=O)[C@@H]2C[C@@H](O)CN2C(=O)[C@@H](NC(=O)c2ccc(N3CC(n4cc(-c5cc(-c6ccccc6O)nnc5N)cn4)C3)cc2)C(C)(C)C)cc1 [I-514] |  | 100 to 500 |  | < 100 |  | < 100 |  |  | > 90 | > 90 | > 90
4 | Cc1ncsc1-c1ccc(CNC(=O)[C@@H]2C[C@@H](O)CN2C(=O)[C@@H](NC(=O)CN2CCC(c3cnc(N4C5CCC4CN(c4cc(-c6ccccc6O)nnc4N)C5)nc3)CC2)C(C)(C)C)c(C(F)(F)F)c1 [I-522] |  | 100 to 500 |  | < 100 |  | > 1000 |  |  | 70 to 90 | > 90 | 70 to 90
